Laboratory results reported in patent publication US8168651B2, “Protein kinase modulators” (Cylene Pharmaceuticals, Inc., priority 2008, dated 2012).
Like-named read-outs stand apart in the source and are kept apart here.

Legend:
recombinant human CK2 = recombinant human CK2 (Homo sapiens (Human), UniProt P68400); assay: CK2 assay (cell-free, 33P-ATP filter plate); type: biochemical; conditions: 500 nM compound, read-out: CK2: % inh 500 nM
[1] = tested on: HCT-116 human colorectal carcinoma cells; assay: Cell-proliferation assay using Alamar Blue dye; type: cell-based; conditions: Homo sapiens;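 note: cells exposed to compound for about 4 days, then Alamar Blue added and dye fluorescence read after about 4 h, compared with medium-only control wells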
recombinant human PIM1 = recombinant human PIM1 (Homo sapiens (Human), UniProt P11309); assay: PIM-1 kinase activity in cell-free in vitro assay; type: biochemical; conditions: for inhibition at 0.5 µM: 500 nM compound, read-out: PIM-1: % inh 500 nM
Sequence of recombinant human PIM1 (P11309 whole entry): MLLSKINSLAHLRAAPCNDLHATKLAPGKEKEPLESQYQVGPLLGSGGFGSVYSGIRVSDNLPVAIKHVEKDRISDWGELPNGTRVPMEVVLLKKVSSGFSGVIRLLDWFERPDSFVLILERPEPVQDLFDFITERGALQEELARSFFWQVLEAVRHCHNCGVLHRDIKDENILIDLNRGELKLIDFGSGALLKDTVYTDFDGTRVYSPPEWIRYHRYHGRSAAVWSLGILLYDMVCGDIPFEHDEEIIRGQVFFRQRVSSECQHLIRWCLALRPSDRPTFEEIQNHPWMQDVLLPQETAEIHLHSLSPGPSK

K-562 = assay: Cell proliferation modulatory activity, K-562; type: cell-based; conditions: Homo sapiens, K562; K-562 cells
[2] = HCT-116, HCT-116, second column, read-out: HCT-116 (uM), cell proliferation modulatory activity
[3] = HCT-116, second HCT-116 column (c8), read-out: HCT-116 (uM) cell proliferation modulatory activity

Sequence of recombinant human CK2 (P68400 whole entry): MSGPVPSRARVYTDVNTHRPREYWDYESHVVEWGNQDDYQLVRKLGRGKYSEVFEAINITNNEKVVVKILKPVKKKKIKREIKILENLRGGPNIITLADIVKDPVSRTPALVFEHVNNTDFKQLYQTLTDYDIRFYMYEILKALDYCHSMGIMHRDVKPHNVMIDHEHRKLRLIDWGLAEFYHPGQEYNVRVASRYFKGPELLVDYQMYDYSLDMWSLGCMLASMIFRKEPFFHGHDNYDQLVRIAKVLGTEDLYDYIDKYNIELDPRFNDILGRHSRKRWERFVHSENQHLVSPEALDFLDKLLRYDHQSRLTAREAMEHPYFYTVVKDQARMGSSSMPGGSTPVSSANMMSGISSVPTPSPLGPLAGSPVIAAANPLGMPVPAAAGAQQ
Sequence of recombinant human CK2 (P67870 whole entry partner): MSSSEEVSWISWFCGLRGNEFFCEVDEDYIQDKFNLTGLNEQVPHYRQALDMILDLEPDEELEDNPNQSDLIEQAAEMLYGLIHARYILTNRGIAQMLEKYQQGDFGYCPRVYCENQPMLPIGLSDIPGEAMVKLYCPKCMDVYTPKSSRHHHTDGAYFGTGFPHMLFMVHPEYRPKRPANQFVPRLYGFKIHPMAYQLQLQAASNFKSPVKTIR

inhibition at 0.5 µM (recombinant human CK2; cell-free) [%] | IC50 [1, 2] [µM] | inhibition at 0.5 µM (recombinant human PIM1; cell-free) [%] | IC50 (K-562) [µM] | IC50 [1, 3] [µM] | inhibition at 0.5 µM (recombinant human PIM1; cell-free assay) [%] | inhibition at 0.5 µM (recombinant human CK2; cell-free assay) [%] | IC50 (recombinant human PIM1; cell-free assay) [µM] | Compound
65.2 | > 10 | 12 | – | – | – | – | – | COCCNC(=O)c1cccc(Nc2nc3cc(C(=O)O)ccc3c3sccc23)c1
– | – | – | > 10 | 5.19 | -0.201 | – | – | CN(C)C(=O)c1ccc2c(c1)nc(N(C)c1ccccc1)c1nc(NC3CC3)ncc12
– | – | – | > 10 | > 10 | 0.71 | – | – | Cc1ccccc1Nc1nc2cc(C(=O)N(C)C)ccc2c2cnc(NC3CC3)nc12
40.5 | > 10 | -11.7 | – | – | – | – | – | CC(C)(C)OC(=O)CCNC(=O)c1cccc(Nc2nc3cc(-c4nnn[nH]4)ccc3c3sccc23)c1
65.8 | > 10 | 4.58 | – | – | – | – | – | O=C(O)c1ccc2c(c1)nc(Nc1cccc(-c3ccccc3)c1)c1ccsc12
– | – | – | – | > 10 | 1.15 | 19.3 | – | CN(c1ccccc1)c1nc2cc(C(=O)O)ccc2c2nccnc12
– | – | – | > 10 | > 10 | 5.72 | – | – | Cc1ccccc1Nc1nc2cc(C(=O)NC3CC3)ccc2c2cnc(NC3CC3)nc12
– | – | – | – | > 10 | 21.9 | 88.7 | – | O=C(O)c1ccc2c(c1)nc(Nc1cccc(F)c1)c1nccnc12
62.2 | > 10 | 25.8 | – | – | – | – | – | O=C(O)c1ccc2c(c1)nc(Nc1cccc(C(=O)NCc3cccnc3)c1)c1ccsc12
-44.2 | 0.967 | -27.8 | – | – | – | – | – | COC(=O)c1ccc2c(c1)nc(Nc1ccccc1)c1nc(S(C)(=O)=O)ncc12
– | – | – | > 10 | 9.74 | 12.6 | – | – | CNC(=O)c1ccc2c(c1)nc(N(C)c1ccccc1)c1nc(NC3CC3)ncc12
-6.27 | > 10 | 8.94 | – | – | – | – | – | COC(=O)c1ccc2c(c1)nc(Nc1cccc(CC(=O)O)c1)c1ccsc12
– | – | – | > 10 | > 10 | -7.8 | 55.9 | – | O=C(O)c1ccc2c(c1)nc(NCC1CCN1Cc1ccccc1)c1ccncc12 (stereo not shown)
– | – | – | > 10 | > 10 | 32.5 | 92 | – | O=C(O)c1ccc2c(c1)nc(Nc1ccccc1OC(F)(F)F)c1ccncc12
52.9 | > 10 | 5.99 | – | – | – | – | – | O=C(O)c1ccc2c(c1)nc(Nc1cccc(C(=O)Nc3nccs3)c1)c1ccsc12
51.2 | > 10 | 19.1 | – | – | – | – | – | O=C(Cc1cccc(Nc2nc3cc(C(=O)O)ccc3c3sccc23)c1)NC1CC1
– | – | – | – | > 10 | -7.65 | 41.5 | – | O=C(O)c1ccc2c(c1)nc(Nc1ccccc1)c1nccnc12
36.5 | > 10 | 20.8 | – | – | – | – | – | CC(=O)N1CCN(C(=O)c2cccc(Nc3nc4cc(C(=O)O)ccc4c4sccc34)c2)CC1
– | – | – | > 10 | > 10 | -15.5 | 12.3 | – | O=C(O)c1ccc2c(c1)nc(Nc1ccc(F)c(Cl)c1)c1ncccc12
– | – | – | > 10 | > 10 | 51.8 | – | > 1.1 | O=C(O)c1ccc2c(c1)nc(NCCn1ccnc1)c1ccncc12
6.43 | 9.56 | -26.7 | – | – | – | – | – | COC(=O)c1ccc2c(c1)nc(Nc1ccccc1)c1nc(SC)ncc12

inhibition at 0.5 µM (recombinant human CK2; cell-free) [%] | IC50 [1, 2] [µM] | inhibition at 0.5 µM (recombinant human PIM1; cell-free) [%] | IC50 (K-562) [µM] | IC50 [1, 3] [µM] | inhibition at 0.5 µM (recombinant human PIM1; cell-free assay) [%] | inhibition at 0.5 µM (recombinant human CK2; cell-free assay) [%] | IC50 (recombinant human PIM1; cell-free assay) [µM] | Compound
65.5 | > 10 | 22.4 | – | – | – | – | – | CC(C)(C)OC(=O)CCNC(=O)c1cccc(Nc2nc3cc(C(=O)O)ccc3c3sccc23)c1
– | – | – | > 10 | > 10 | 71.2 | 89 | 0.439 | CN(c1ccccc1)c1nc2cc(C(=O)O)ccc2c2cnccc12
– | – | – | > 10 | > 10 | 9.67 | – | – | CSc1ncc2c(n1)c(Nc1ccccc1C)nc1cc(C(=O)O)ccc12
– | – | – | > 10 | > 10 | -32.4 | -8.65 | – | COC(=O)c1ccc2c(c1)nc(NN)c1ccncc12
– | – | – | > 10 | > 10 | 70.7 | 97.3 | 0.372 | O=C(O)c1ccc2c(c1)nc(Nc1ccccc1Cl)c1ccncc12
– | – | – | – | > 10 | -26 | 5.49 | – | O=C(O)c1ccc2c(c1)nc(NCCc1ccccc1)c1nccnc12
55.4 | > 10 | 42.5 | – | – | – | – | – | CN(C)C(=O)Cc1cccc(Nc2nc3cc(C(=O)O)ccc3c3sccc23)c1
– | – | – | > 10 | 1.61 | 4.21 | – | – | CNC(=O)c1ccc2c(c1)nc(Nc1ccccc1C)c1nc(NC3CC3)ncc12
21.3 | > 10 | -12.2 | – | – | – | – | – | CN(C)C(=O)c1cccc(Nc2nc3cc(C(=O)O)ccc3c3sccc23)c1
– | – | – | > 10 | > 10 | 16.1 | – | – | CN(c1ccccc1)c1nc2cc(C(=O)NC3CC3)ccc2c2cnc(NC3CC3)nc12
– | – | – | > 10 | > 10 | – | – | – | O=C(O)c1ccc2c(c1)nc(Nc1ccccc1)c1ncccc12
– | – | – | > 10 | > 10 | 38.8 | – | – | O=C(O)c1ccc2c(c1)nc(N1CCc3c([nH]c4ccccc34)C1)c1ccncc12
– | – | – | – | – | -17.5 | -9.99 | – | Cc1cc(NC(=O)NCc2ccc3c(c2)nc(Nc2cccc(F)c2)c2ccsc23)c(C(F)(F)F)o1
– | – | – | – | – | -29.2 | 10.1 | – | COC(=O)c1cccc2c1nc(Cl)c1ccncc12 [drawing 2000]
– | – | – | 0.334 | 4.36 | 9.84 | – | – | COC(=O)c1ccc2c(c1)nc(N(C)c1ccccc1)c1nc(S(C)(=O)=O)ncc12
– | – | – | – | – | 82.5 | 103 | 0.211 | CN1CCCCC1CNc1nc2cc(C(=O)O)ccc2c2cnccc12 (stereo not shown)
– | – | – | – | – | -77.4 | -13.5 | – | O=C(O)c1cccc2c1nc(Nc1ccccc1)c1ccncc12 [drawing 2004]
– | – | – | – | – | -89.6 | -7.76 | – | N#Cc1ccc2c(c1)nc(NCCC(F)(F)F)c1ccsc12
– | – | – | – | – | 15.3 | -1.1 | – | O=c1[nH]c2cc(F)ccc2c2cnccc12
37.7 | > 10 | -20.9 | – | – | – | – | – | O=C(O)c1ccc2c(c1)nc(Nc1cccc(C(=O)Nc3ccccc3)c1)c1ccsc12
– | – | – | – | – | 93.3 | 92.8 | 0.1 | CCN1CCCC1CNc1nc2cc(C(=O)O)ccc2c2sccc12 (stereo not shown)

inhibition at 0.5 µM (recombinant human CK2; cell-free) [%] | IC50 [1, 2] [µM] | inhibition at 0.5 µM (recombinant human PIM1; cell-free) [%] | IC50 (K-562) [µM] | IC50 [1, 3] [µM] | inhibition at 0.5 µM (recombinant human PIM1; cell-free assay) [%] | inhibition at 0.5 µM (recombinant human CK2; cell-free assay) [%] | IC50 (recombinant human PIM1; cell-free assay) [µM] | Compound
– | – | – | – | – | 99.2 | 24.2 | 0.267 | CN(C)CCNc1nc2cc(-c3nnn[nH]3)ccc2c2ccsc12
– | – | – | – | – | 118 | 50.7 | 0.116 | OCCN(CCO)CCNc1nc2cc(-c3nnn[nH]3)ccc2c2sccc12
– | – | – | > 10 | > 10 | – | – | > 1.1 | O=C(O)c1ccc2c(c1)nc(NN1CCCCC1)c1ccncc12
– | – | – | – | – | -9.76 | -12.1 | – | CNc1ncc2c(n1)c(Nc1ccccc1)nc1cc(C(=O)OC)ccc12
– | – | – | – | – | 80 | 1.86 | – | CCN1CCCC1CNc1nc2cc(-c3nnn[nH]3)ccc2c2ccsc12 (stereo not shown)
– | – | – | – | – | 89.7 | 66 | 0.087 | CN(C)CCNc1nc2cc(-c3nnn[nH]3)ccc2c2cscc12
62.7 | > 10 | 10.6 | – | – | – | – | – | Cc1cc(CNC(=O)c2cccc(Nc3nc4cc(C(=O)O)ccc4c4sccc34)c2)no1
– | – | – | – | – | 106 | 101 | 0.565 | O=C(O)c1ccc2c(c1)nc(NC1CCCC1)c1ccncc12
– | – | – | – | – | 27.8 | -9.99 | – | N#Cc1ccc2c(c1)nc(Oc1ccc(F)c(F)c1)c1ccsc12
– | – | – | – | – | 10 | -3.78 | – | N#Cc1ccc2c(c1)nc(Oc1ccc(F)cc1)c1ccsc12
– | – | – | – | – | 65 | 47.2 | – | COCCNc1nc2cc(-c3nnn[nH]3)ccc2c2sccc12
– | – | – | – | – | 93.9 | 57.4 | 0.054 | CN1CCCCC1CNc1nc2cc(-c3nnn[nH]3)ccc2c2cscc12 (stereo not shown)
– | – | – | – | > 10 | 25 | 96.5 | – | O=C(O)c1ccc2c(c1)nc(Nc1ccccc1Oc1ccccc1)c1ccncc12
– | – | – | – | – | 20 | 23.4 | – | CN(C)CCNc1nc2cc(C#N)ccc2c2cscc12
– | – | – | – | – | 111 | 53.7 | 0.138 | c1cc2c(s1)c(NC1CCNCC1)nc1cc(-c3nnn[nH]3)ccc12
– | – | – | – | – | -11.2 | -4.71 | – | Cc1noc(C)c1NC(=O)NCc1ccc2c(c1)nc(Nc1cccc(F)c1)c1ccsc12
– | – | – | – | – | 46.4 | 24.6 | – | CN1CCCCC1CNc1nc2cc(C#N)ccc2c2cscc12 (stereo not shown)
– | – | – | – | – | -22.2 | -7.33 | – | N#Cc1ccc2c(c1)nc(Oc1ccc3ncccc3c1)c1ccsc12
– | – | – | – | – | 78.9 | 36.6 | – | NC(=O)c1cccc2c1nc(Nc1cccc(Cl)c1)c1ccncc12 [drawing 2002]
– | – | – | > 10 | > 10 | 31.4 | – | – | CN(c1ccccc1)c1nc2cc(C(=O)O)ccc2c2cnc(NC3CC3)nc12
– | – | – | – | – | 11 | -5.43 | – | Cc1nn(C)c(C)c1NC(=O)NCc1ccc2c(c1)nc(Nc1cccc(F)c1)c1ccsc12
